Our source for the IC50, logP and solubility values is ChEMBL document CHEMBL1681756, “Synthesis and evaluation of novel pyrimidine-based dual EGFR/Her-2 inhibitors” (Bioorg Med Chem Lett, 2011).

Series [1] has as its target Epidermal growth factor receptor (Homo sapiens, UniProt P00533). In words: Inhibition of EGFR by homogeneous time-resolved fluorescence assay.
Series [2] addresses Receptor tyrosine-protein kinase erbB-2 (Homo sapiens, UniProt P04626). In words: Inhibition of HER2 by homogeneous time-resolved fluorescence assay.
A short description of series [3]: Lipophilicity log P of the compound. Conditions: octanol/water. The series is classed as physicochemical.
Series [4] in a line: Aqueous solubility of the compound at pH 6.8. The series is classed as physicochemical.
The next series relates to BT-474. In words: Antiproliferative activity against human BT474 cells by methylene blue staining method.

One may read the IC50 as the concentration that inhibits the measured activity by half. A higher IC50 goes with a need for much substance. What is called logP is the decadic logarithm of the partition coefficient of the neutral form, usually between octanol and water. As usually defined, the solubility is the dissolved amount per volume that the medium holds.

Receptor tyrosine-protein kinase erbB-2, sequence (P04626 whole entry): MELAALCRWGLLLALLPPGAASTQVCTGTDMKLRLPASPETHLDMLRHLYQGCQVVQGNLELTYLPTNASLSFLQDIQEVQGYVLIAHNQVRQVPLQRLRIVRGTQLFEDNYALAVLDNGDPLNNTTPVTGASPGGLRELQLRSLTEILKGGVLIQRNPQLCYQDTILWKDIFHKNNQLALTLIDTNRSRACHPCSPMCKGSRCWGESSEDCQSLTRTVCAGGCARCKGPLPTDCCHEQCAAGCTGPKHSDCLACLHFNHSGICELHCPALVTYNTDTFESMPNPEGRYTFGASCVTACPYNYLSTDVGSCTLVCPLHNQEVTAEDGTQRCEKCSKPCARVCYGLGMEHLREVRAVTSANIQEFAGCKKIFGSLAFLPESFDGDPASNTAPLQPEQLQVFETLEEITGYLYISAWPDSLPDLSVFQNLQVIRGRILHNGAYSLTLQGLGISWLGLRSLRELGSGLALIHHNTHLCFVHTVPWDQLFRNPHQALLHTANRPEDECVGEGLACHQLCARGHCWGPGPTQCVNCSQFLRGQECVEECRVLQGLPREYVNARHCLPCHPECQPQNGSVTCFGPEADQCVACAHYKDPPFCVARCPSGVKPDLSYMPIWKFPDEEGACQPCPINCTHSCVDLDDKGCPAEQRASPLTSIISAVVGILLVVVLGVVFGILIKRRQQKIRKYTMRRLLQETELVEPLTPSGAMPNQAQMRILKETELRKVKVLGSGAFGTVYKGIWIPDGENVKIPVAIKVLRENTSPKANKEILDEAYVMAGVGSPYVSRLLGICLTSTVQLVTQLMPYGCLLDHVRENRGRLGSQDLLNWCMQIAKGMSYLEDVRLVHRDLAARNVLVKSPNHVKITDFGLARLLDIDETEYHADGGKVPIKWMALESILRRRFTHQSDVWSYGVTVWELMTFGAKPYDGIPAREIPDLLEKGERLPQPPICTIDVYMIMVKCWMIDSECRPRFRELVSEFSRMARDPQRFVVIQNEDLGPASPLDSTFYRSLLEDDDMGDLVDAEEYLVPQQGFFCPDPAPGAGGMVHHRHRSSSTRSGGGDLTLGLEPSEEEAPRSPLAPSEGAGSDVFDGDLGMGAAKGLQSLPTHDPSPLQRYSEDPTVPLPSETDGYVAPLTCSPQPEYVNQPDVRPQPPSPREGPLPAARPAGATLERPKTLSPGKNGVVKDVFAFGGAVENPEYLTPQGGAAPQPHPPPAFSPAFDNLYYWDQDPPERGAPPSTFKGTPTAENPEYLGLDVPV
Epidermal growth factor receptor, sequence (P00533 whole entry): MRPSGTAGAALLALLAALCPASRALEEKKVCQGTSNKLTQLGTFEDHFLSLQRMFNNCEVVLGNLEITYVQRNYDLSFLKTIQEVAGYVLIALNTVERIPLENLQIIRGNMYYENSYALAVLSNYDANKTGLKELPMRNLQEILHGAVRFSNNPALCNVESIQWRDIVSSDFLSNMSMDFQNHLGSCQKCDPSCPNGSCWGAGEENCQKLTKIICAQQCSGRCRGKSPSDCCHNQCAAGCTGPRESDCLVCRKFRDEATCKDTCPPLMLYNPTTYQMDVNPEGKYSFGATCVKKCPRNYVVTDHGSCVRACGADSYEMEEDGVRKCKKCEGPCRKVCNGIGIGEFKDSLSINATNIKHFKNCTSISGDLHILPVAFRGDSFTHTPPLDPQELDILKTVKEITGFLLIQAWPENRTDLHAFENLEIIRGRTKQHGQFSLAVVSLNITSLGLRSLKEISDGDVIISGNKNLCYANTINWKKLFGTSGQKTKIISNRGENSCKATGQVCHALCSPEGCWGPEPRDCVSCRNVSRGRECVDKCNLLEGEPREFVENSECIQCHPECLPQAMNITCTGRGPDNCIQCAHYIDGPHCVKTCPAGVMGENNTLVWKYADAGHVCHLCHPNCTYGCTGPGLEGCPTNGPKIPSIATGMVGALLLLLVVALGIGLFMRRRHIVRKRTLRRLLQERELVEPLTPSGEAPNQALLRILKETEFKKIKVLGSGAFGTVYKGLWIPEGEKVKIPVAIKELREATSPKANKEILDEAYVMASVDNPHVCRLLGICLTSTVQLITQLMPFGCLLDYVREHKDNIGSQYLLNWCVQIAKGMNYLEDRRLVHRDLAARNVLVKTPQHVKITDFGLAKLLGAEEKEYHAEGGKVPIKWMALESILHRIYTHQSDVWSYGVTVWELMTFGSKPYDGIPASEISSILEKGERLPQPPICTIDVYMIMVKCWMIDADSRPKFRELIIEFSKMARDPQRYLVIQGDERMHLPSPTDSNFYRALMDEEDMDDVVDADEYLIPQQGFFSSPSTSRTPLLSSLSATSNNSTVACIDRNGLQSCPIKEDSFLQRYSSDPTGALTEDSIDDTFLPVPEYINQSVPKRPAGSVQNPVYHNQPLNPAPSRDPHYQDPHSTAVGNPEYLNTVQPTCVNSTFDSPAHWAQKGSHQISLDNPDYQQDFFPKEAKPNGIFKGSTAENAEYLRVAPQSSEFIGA

Take `Fc1cccc(COc2ccc(Nc3cc(Oc4ccccc4)ncn3)cc2Cl)c1`: the IC50 is 10000 nM in series [1] and greater than 100000 nM in series [2].

Consider `Fc1cccc(COc2ccc(Nc3cc(-c4cccnc4)ncn3)cc2Cl)c1`, for which the IC50 in series [1] was 47000 nM; in series [2], greater than 100000 nM.

Regarding `Cc1ncnc(Nc2ccc(OCc3cccc(F)c3)c(Cl)c2)c1/C=C/C(=O)NCCN1CCOCC1`, the IC50 in series [1] worked out at 114 nM; in series [2], 318 nM.

Consider `Cc1ncnc(Nc2ccc(OCc3cccc(F)c3)c(Cl)c2)c1C#CCCN1CCOCC1`, for which the results for the 50% inhibitory concentration (IC50) in series [1] and in series [2] were 13 nM and 74 nM, respectively.

In series [3], `Cc1ncnc(Nc2ccc(OCc3cccc(F)c3)c(Cl)c2)c1C#Cc1ccc(CN2CCOCC2)cc1` returned a log partition coefficient (logP) of 6.96. In addition, in series [4] (aqueous, read-out: solubility), the solubility is greater than 50 µM. Besides, the half-maximal inhibitory concentration (IC50) in series [1] is 240 nM; in series [2], 440 nM; in the series with BT-474, 394 nM.

As for `CCc1ncnc(Nc2ccc(OCc3cccc(F)c3)c(Cl)c2)c1C`, the half-maximal inhibitory concentration (IC50) was determined as 640 nM in series [1] and 2900 nM in series [2].

Take `Fc1cccc(COc2ccc(Nc3cc(N4CCCC4)ncn3)cc2Cl)c1`: the IC50 in series [1] and in series [2] was greater than 100000 nM throughout.

Regarding `Cc1ncnc(Nc2ccc(OCc3cccc(F)c3)c(Cl)c2)c1/C=C/c1ccc(CN2CCOCC2)cc1`, in series [3], the lipophilicity (logP) was found to be 7.73. Besides, the IC50 in series [1] is 120 nM; in series [2], 190 nM; with BT-474, 644 nM.

For the compound `Fc1cccc(COc2ccc(Nc3cc(-c4ccsc4)ncn3)cc2Cl)c1`, in series [2], the IC50 came to 36000 nM.

In the case of `CS(=O)(=O)CCNCc1ccc(-c2ccc3ncnc(Nc4ccc(OCc5cccc(F)c5)c(Cl)c4)c3c2)o1.Cc1ccc(S(=O)(=O)O)cc1.Cc1ccc(S(=O)(=O)O)cc1.O` [LAPATINIB DITOSYLATE], the lipophilicity (logP) in series [3] was 6.67. In addition, the solubility in series [4] (buffer) came to 24 µM. In the series on BT-474, this compound returned an IC50 of 100 nM.

As to `Cc1ncnc(Nc2ccc(OCc3cccc(F)c3)c(Cl)c2)c1C`, the IC50 in series [1] is 17 nM; in series [2], 140 nM.

In the case of `Cc1ncnc(Nc2ccc(OCc3cccc(F)c3)c(Cl)c2)c1C#CCCNCc1ccccc1`, the IC50 in series [1] is 270 nM; in series [2] it was 810 nM.

With `Cc1ncnc(Nc2ccc(OCc3cccc(F)c3)c(Cl)c2)c1C#CCCCN1CCOCC1`, the concentration for half-maximal inhibition (IC50) in series [1] is 34 nM; in series [2], 150 nM.

On to `Cc1ncnc(Nc2ccc(OCc3cccc(F)c3)c(Cl)c2)c1/C=N/OCCN1CCOCC1`, for which the IC50 in series [1] was 68 nM; in series [2], 740 nM.

With `Cc1ncnc(Nc2ccc(OCc3cccc(F)c3)c(Cl)c2)c1/C=C(\F)C(=O)NCCN1CCCC1`, in series [3], the lipophilicity (logP) came to 5.98. Also, in series [4] (aqueous, read-out: solubility), the solubility was greater than 50 µM. Besides, the results for the half-maximal inhibitory concentration (IC50) (in series [1]; in series [2]; in the series with BT-474) were 3 nM, 19 nM and 1130 nM, respectively.

With `Cc1ncnc(Nc2ccc(OCc3cccc(F)c3)c(Cl)c2)c1C#CCN1CCOCC1`, the figures for the IC50 in series [1] and in series [2] were 4130 nM and 5380 nM, respectively.

Consider `Cc1ncnc(Nc2ccc(OCc3cccc(F)c3)c(Cl)c2)c1/C=N/OCCCN1CCOCC1`, for which the IC50 in series [1] worked out at 65 nM; in series [2] it was 1800 nM.

On to `Fc1cccc(COc2ccc(Nc3cc(-c4ccccc4)ncn3)cc2Cl)c1`, for which the half-maximal inhibitory concentration (IC50) in series [1] amounted to 1200 nM; in series [2], 6300 nM.

As for `Cc1ncnc(Nc2ccc(OCc3cccc(F)c3)c(Cl)c2)c1/C=C/c1ccc(CN2CCOCC2)cc1.Cl`, in series [4] (aqueous, read-out: solubility), the solubility came out at 2 µM.

For the compound `CCN1CCN(C(=O)/C(F)=C/c2c(C)ncnc2Nc2ccc(OCc3cccc(F)c3)c(Cl)c2)CC1`, the IC50 in series [1] is 156 nM; in series [2], 102 nM.

For `Cc1ncnc(Nc2ccc(OCc3cccc(F)c3)c(Cl)c2)c1C#CCCCN1CCCC1`, the concentration for half-maximal inhibition (IC50) in series [2] was 95 nM.

Regarding `Cc1cc(Nc2ccc(OCc3cccc(F)c3)c(Cl)c2)ncn1`, the IC50 in series [1] is 1100 nM; in series [2], 6500 nM.

As for `CCN1CCN(CCCC#Cc2c(C)ncnc2Nc2ccc(OCc3cccc(F)c3)c(Cl)c2)CC1`, the log partition coefficient (logP) in series [3] came out at 6.23. In series [4] (aqueous, read-out: solubility), the solubility was greater than 50 µM. The IC50 in series [1] turned out to be 9 nM; in series [2] it was 36 nM; with BT-474 it was 1440 nM.

Turning to `Cc1ncnc(Nc2ccc(OCc3cccc(F)c3)c(Cl)c2)c1/C=C(\F)C(=O)NCCS(C)(=O)=O`, the results for the 50% inhibitory concentration (IC50) in series [1] and in series [2] were 19 nM and 71 nM, respectively.

Consider `Fc1cccc(COc2ccc(Nc3ccncn3)cc2Cl)c1`, for which the results for the concentration for half-maximal inhibition (IC50) in series [1] and in series [2] were 920 nM and 25000 nM, respectively.

In turn, `Cc1ncnc(Nc2ccc(OCc3cccc(F)c3)c(Cl)c2)c1/C=C(\F)C(=O)NCCN1CCOCC1` showed an IC50 in series [2] of 78 nM.

As for `C/C(=C\c1c(C)ncnc1Nc1ccc(OCc2cccc(F)c2)c(Cl)c1)C(=O)NCCN1CCOCC1`, the IC50 amounted to 28 nM in series [1] and 81 nM in series [2].

Regarding `Cc1ncnc(Nc2ccc(OCc3cccc(F)c3)c(Cl)c2)c1C#C/C=N/OCCN1CCOCC1`, the half-maximal inhibitory concentration (IC50) amounted to 38 nM in series [1] and 70 nM in series [2].

`Cc1ncnc(Nc2ccc(OCc3cccc(F)c3)c(Cl)c2)c1-c1cccc(CN2CCOCC2)c1`: the IC50 was determined as 590 nM in series [1] and 3750 nM in series [2].

As for `Cc1c(Nc2ccc(OCc3cccc(F)c3)c(Cl)c2)ncnc1-c1ccccc1`, the IC50 stood at 20000 nM in series [1] and 65000 nM in series [2].
